Assays:
NF-κB = experiment: RANKL-induced NF-κB activation by EMSA in RAW 264.7 cells; type: cell-based, mouse
Experimental: (§1) RAW264.7 cells (1×10^6 cells) were incubated with variable concentrations of guggulsterone for 4 h followed by treatment of the cells with RANKL (10 nM) for 25 min. The samples were then analyzed for NF-κB by EMSA. […] RAW264.7 cells (5×10^6 cells) were incubated with guggulsterone (50 μM) for 4 h followed by treatment of the cells with RANKL (10 nM) for different times. The samples were then analyzed for IKK by immune complex kinase assay.
RAW264.7 cells (1×10^6 cells) were incubated with 1′-Acetoxychavicol (50 μM) and RANKL (10 nm) for different times. The samples were then analyzed for NF-κB by EMSA. […] RAW264.7 cells (1×10^6 cells) were incubated with variable concentrations of 1′-Acetoxychavicol and RANKL (10 nM) for 25 min. The samples were then analyzed for NF-κB by EMSA.
Nuclear extracts were prepared as described earlier (Bharti et al., 2003). Briefly, 2×10^6 RAW264.7 cells were washed with cold PBS, scraped, and suspended in 0.4 ml of hypotonic lysis buffer containing protease inhibitors for 30 min. The cells were then lysed with 12.5 μl of 10% Nonidet P-40. The homogenate was centrifuged, and supernatant containing the cytoplasmic extracts was stored frozen at −80° C. The nuclear pellet was re-suspended in 25 μl ice-cold nuclear extraction buffer. After 30 min of intermittent mixing, the extract was centrifuged, and supernatants containing nuclear extracts were secured. The protein content was measured by the Bradford method. If the extracts were not used immediately, they were stored at −80° C.
NF-κB activation was analyzed by electrophoretic mobility gel shift assay as described (Chaturvedi et al., 1994). […] The radioactive bands from the dried gels were visualized and quantitated by the Phosphorlmager (Molecular Dynamics, Sunnyvale, Calif.) using ImageQuant software.

IκBα = experiment: RANKL-induced IκBα degradation by Western blotting in RAW 264.7 cells; type: cell-based, mouse
Experimental: (§2) RAW264.7 cells (1×10^6 cells) were incubated with 1′-Acetoxychavicol (50 μM) and RANKL (10 nM) for different times. The samples were then analyzed for IκBα by western blot. […] RAW264.7 cells (1×10^6 cells) were incubated with different combinations of 1′-Acetoxychavicol (50 μM), RANKL (10 nM), acetyl-leucyl-leucyl-norleucinal (ALLN, 50 μg/ml) for 25 min. The samples were analyzed for phosphorylated IκBα by western blot.
(§3) Thirty to fifty micrograms of cytoplasmic protein extracts were resolved on 10% SDS-PAGE gel. After electrophoresis, the proteins were electrotransferred to a nitrocellulose membrane, blocked with 5% nonfat milk, and probed with antibodies against either IκBα, phospho-IκBα, IKKα, IKKβ, or β-actin (1:3000) for 1 h. Thereafter, the blot was washed, exposed to HRP-conjugated secondary antibodies for 1 h, and finally detected by chemiluminescence (ECL, Amersham Pharmacia Biotech, Arlington Heights, Ill.).

phospho-IκBα = experiment: RANKL-induced IκBα phosphorylation by Western blotting in RAW 264.7 cells; type: cell-based, mouse; conditions: for RANKL-induced phosphorylation of IκBα: RANKL 10 nM
Experimental: as §2, §3

RAW 264.7 cells = experiment: Osteoclast differentiation assay (RANKL-induced, TRAP staining); type: cell-based, mouse
Experimental: Cells were cultured for 5 days after RANKL treatment and stained for TRAP expression. […] Values indicate mean of total osteoclasts in triplicate cultures (error bar indicates s.d.).
RAW264.7 cells (1×10^4 cells) were incubated with guggulsterone (5 μM) and RANKL (5 nM) for different days. The samples were then analyzed for osteoclastogenesis by TRAP assay. […]
RAW264.7 cells were cultured in 24-well dishes at a density of 1×10^4 cells per well and were allowed to adhere overnight. Medium was then replaced and the cells were treated with 100 ng/ml (˜5 nM) RANKL. At day 5, cultures were stained for TRAP expression as described (Shevde et al., 2000) using an acid phosphatase kit, and the total number of TRAP-positive multinucleated osteoclasts (>3 nuclei) per well were counted.

[1] = tested on: RAW264.7 cells incubated with MDA-MB-468 cells; experiment: MDA-MB-468 breast adenocarcinoma cells-induced osteoclastogenesis (TRAP assay); type: cell-based, mouse; conditions: five days
Experimental: (§4) RAW264.7 cells (1×10^4 cells) were incubated either with MDA-MB-468 cells (1×10^3 cells) or with MCF-7 cells (1×10^3 cells) in the presence of varying concentrations of 1′-Acetoxychavicol for five days and then analyzed for osteoclastogenesis by TRAP assay.
(§5) RAW264.7 cells (1×10^4 cells) were incubated with MDA-MB-468 cells (1×10^3 cells) or with MCF-7 cells (1×10^3 cells) in the presence of varying concentrations of guggulsterone for five days and then analyzed for osteoclastogenesis by TRAP assay.
(§6) The ability of tumor cells to induce osteoclastogenesis was also investigated in this study. Cells from head and neck squamous cell carcinoma and breast adenocarcinoma were used for this purpose. Briefly, RAW264.7 cells were incubated with different numbers of cells of head and neck squamous cell carcinoma (HN5, Fadu) or breast adenocarcinoma (MDA-MB-468, MCF-7) and then analyzed for osteoclastogenesis by TRAP assay.

[2] = tested on: RAW264.7 cells incubated with MCF-7 cells; experiment: MCF-7 breast adenocarcinoma cells-induced osteoclastogenesis (TRAP assay); type: cell-based, mouse; conditions: five days
Experimental: as §4, §5, §6

IκB kinase (IKK) = target: T1, IκB kinase (IKK) (Mus musculus, UniProt O88351+Q60680); experiment: IκB kinase (immune complex kinase) assay on extracts of treated RAW 264.7 cells; type: cell-based
T1 construct: 200 μg cytoplasmic extracts were immunoprecipitated with 1 μg of anti-IKKα and anti-IKKβ antibodies each; endogenous in cells; host or cells: RAW 264.7 (mouse macrophage cell line), cytoplasmic extracts, immunoprecipitated with anti-IKKα and anti-IKKβ
T1 sequence (Q60680 whole entry): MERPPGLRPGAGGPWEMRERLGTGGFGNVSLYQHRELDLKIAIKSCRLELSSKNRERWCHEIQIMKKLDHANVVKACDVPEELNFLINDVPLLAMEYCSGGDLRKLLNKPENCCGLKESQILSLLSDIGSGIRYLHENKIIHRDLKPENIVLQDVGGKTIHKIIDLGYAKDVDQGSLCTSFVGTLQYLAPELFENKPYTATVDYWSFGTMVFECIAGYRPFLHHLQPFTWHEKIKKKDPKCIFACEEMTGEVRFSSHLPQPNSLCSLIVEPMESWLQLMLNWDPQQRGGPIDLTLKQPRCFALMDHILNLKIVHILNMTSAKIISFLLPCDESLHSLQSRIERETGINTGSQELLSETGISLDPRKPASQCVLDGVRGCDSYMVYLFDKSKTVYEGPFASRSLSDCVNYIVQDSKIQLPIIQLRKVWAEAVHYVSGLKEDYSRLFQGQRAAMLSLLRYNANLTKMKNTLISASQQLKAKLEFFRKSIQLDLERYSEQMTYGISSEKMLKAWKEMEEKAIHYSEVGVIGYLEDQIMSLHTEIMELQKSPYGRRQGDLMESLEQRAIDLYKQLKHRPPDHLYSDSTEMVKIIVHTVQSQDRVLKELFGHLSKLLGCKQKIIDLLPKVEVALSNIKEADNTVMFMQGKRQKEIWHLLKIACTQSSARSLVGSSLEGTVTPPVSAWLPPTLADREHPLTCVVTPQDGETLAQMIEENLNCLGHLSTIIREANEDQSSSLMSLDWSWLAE
T1 sequence (O88351 whole entry): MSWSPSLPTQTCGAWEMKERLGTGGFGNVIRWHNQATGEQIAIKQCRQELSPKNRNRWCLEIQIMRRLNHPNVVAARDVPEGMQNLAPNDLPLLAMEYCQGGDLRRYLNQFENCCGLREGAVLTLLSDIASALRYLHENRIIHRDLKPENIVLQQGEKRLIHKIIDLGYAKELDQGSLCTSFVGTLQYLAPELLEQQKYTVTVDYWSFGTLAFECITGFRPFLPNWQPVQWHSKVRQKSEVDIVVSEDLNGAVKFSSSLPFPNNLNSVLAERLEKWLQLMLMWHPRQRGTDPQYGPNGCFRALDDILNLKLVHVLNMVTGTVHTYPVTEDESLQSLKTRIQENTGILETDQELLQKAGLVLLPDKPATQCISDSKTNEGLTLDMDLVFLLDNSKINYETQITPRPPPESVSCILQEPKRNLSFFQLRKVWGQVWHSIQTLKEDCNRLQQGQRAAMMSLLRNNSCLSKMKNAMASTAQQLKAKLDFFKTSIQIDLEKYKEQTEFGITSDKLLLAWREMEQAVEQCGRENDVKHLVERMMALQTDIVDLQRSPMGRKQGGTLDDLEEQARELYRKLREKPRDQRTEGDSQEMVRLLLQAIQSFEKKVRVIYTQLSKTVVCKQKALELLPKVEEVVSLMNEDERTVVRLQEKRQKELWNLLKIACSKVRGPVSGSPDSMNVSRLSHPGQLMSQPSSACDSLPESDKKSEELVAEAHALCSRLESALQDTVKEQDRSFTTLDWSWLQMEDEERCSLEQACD
T1 sequence (O88522 whole entry partner): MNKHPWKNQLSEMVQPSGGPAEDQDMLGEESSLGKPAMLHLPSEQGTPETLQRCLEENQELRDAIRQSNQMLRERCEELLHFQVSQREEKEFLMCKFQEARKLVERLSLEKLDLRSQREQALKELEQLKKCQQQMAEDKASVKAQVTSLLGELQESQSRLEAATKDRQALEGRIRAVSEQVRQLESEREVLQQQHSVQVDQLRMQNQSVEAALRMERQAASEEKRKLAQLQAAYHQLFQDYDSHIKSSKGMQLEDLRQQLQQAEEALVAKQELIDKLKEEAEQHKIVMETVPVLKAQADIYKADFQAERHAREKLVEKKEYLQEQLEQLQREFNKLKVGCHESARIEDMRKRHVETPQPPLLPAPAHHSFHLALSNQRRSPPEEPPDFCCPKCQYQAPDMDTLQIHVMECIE
Experimental: as §1

IKKα = IKKα protein expression by Western blotting; type: cell-based, mouse; conditions: curcumin 50 μM; FIG. 2C middle/lower panel
Experimental: as §3
(§7) The IκB kinase assay was performed by a modified method as described earlier (Manna et al., 2000). Briefly, 200 μg cytoplasmic extracts were immunoprecipitated with 1 μg of anti-IKKα and anti-IKKβ antibodies each, and the immune complexes so formed were precipitated with 0.01 ml of protein A/G-Sepharose beads for 2 hours. The beads were washed first with lysis buffer and then with the kinase assay buffer (50 mM HEPES pH 7.4, 20 mM MgCl2, and 2 mM DTT). The immune complex was then assayed for kinase activity usinig kinase assay buffer containing 20 μCi [γ-^32P] ATP, 10 μM unlabeled ATP, and 2 μg/sample glutathione S-transferase-IκBα (amino acids 1-54). After incubation at 30° C. for 30 min, the mixture was boiled with 6×SDS sample buffer to stop the reaction. […] The radioactive bands of the dried gel were visualized and quantitated by Phosphorlmager. […]

IKKβ = IKKβ protein expression by Western blotting; type: cell-based, mouse; conditions: curcumin 50 μM; FIG. 2C middle/lower panel
Experimental: as §3, §7

[3] = curcumin 10 μM, RANKL 5 nM, 5 days, FIG. 4

## C=CC(OC(C)=O)c1ccc(O)cc1 (stereo not shown) [1′-Acetoxychavicol]
NF-κB; 1′-Acetoxychavicol 50 μM and RANKL 10 nM for different times, FIG. 9A
  RANKL-induced NF-κB activation (EMSA), time course: suppressed RANKL-induced NF-κB activation in time-dependent manner
NF-κB; RANKL 10 nM 25 min, FIG. 9B
  concentration of 1′-Acetoxychavicol at which maximal inhibition of RANKL-induced NF-κB activation was observed: 50 µM
NF-κB; variable concentrations of 1′-Acetoxychavicol and RANKL 10 nM for 25 min, FIG. 9B
  RANKL-induced NF-κB activation (EMSA), dose dependence: suppressed RANKL-induced NF-κB activation in a dose-dependent manner
IκBα; 1′-Acetoxychavicol 50 μM and RANKL 10 nM for different times, FIG. 10A
  RANKL-induced IκBα level (degradation): no decrease in the RANKL-induced IκBα level
phospho-IκBα; 1′-Acetoxychavicol 50 μM, ALLN 50 μg/ml, 25 min, FIG. 10B
  RANKL-induced phosphorylation of IκBα: suppressed
RAW 264.7 cells; 1′-Acetoxychavicol 0.5 μM and RANKL 5 nM, 3 days, FIG. 11A
  RANKL-induced osteoclastogenesis (TRAP assay), incubated for 3 days: able to suppress the RANKL-induced osteoclastogenesis
RAW 264.7 cells; 1′-Acetoxychavicol 0.5 μM and RANKL 5 nM, longer time, FIG. 11A
  RANKL-induced osteoclastogenesis (TRAP assay), incubated for longer than 3 days: osteoclasts were seen
RAW 264.7 cells; RANKL 5 nM, 1′-Acetoxychavicol 0.5 μM added on different days, FIG. 12
  RANKL-induced osteoclastogenesis, time of addition of 1′-Acetoxychavicol: suppressed RANKL-induced osteoclastogenesis only when added together with RANKL
RAW 264.7 cells; different concentrations of 1′-Acetoxychavicol, RANKL 5 nM, FIG. 11B
  number of RANKL-induced osteoclasts versus 1′-Acetoxychavicol concentration: decreased with increasing concentrations of 1′-Acetoxychavicol
[1]; varying concentrations of 1′-Acetoxychavicol, FIG. 15B
  number of TRAP-positive cells, MDA-MB-468 co-incubation: decreased as the concentration of 1′-Acetoxychavicol increased
[1]; varying concentrations of 1′-Acetoxychavicol, FIGS. 15A and 15B
  MDA-MB-468 cells induced osteoclastogenesis: suppressed
[2]; varying concentrations of 1′-Acetoxychavicol, FIG. 15D
  number of TRAP-positive cells, MCF-7 co-incubation: decreased as the concentration of 1′-Acetoxychavicol increased
[2]; varying concentrations of 1′-Acetoxychavicol, FIGS. 15C and 15D
  MCF-7 cells induced osteoclastogenesis: suppressed

## COc1cc(/C=C/C(=O)CC(=O)/C=C/c2ccc(O)c(OC)c2)ccc1O [curcumin, diferuloylmethane]
NF-κB; curcumin 50 μM for 2 hours, then RANKL 10 nM, FIG. 1A
  RANKL-induced NF-κB activation (EMSA): completely abrogated the RANKL-induced NF-κB activation
NF-κB; curcumin 2 h, then RANKL 10 nM, FIG. 1B
  concentration of curcumin at which complete inhibition of RANKL-induced NF-κB activation was observed: 50 µM
NF-κB; indicated concentrations of curcumin 2 h, then RANKL 10 nM, FIG. 1B
  dose dependence of inhibition of RANKL-induced NF-κB: increased as the dose of curcumin was increased
IκBα; curcumin 50 μM 2 h pretreatment, RANKL 10 nM, FIG. 2A
  RANKL-induced IκBα level (degradation): no decrease in the RANKL-induced IκBα level
phospho-IκBα; curcumin 50 μM 2 h pretreatment, FIG. 2B
  RANKL-induced phosphorylation of IκBα: eliminated the RANKL-induced phosphorylation
phospho-IκBα; curcumin alone, no RANKL, FIG. 2B
  phosphorylation of IκBα, curcumin alone: did not result in phosphorylation of IκBα
IκB kinase (IKK); curcumin 50 μM 2 h pretreatment, RANKL 10 nM, FIG. 2C upper panel
  RANKL-induced IKK activity (phosphorylation of GST-IκBα substrate): could not phosphorylate guggulsterone T-IκBα upon RANKL treatment
IKKα
  expression of IKKα: did not alter the expression
IKKβ
  expression of IKKβ: did not alter the expression
RAW 264.7 cells; RANKL 5 nM, different concentrations of curcumin, 5 days, FIG. 3B
  number of RANKL-induced osteoclasts versus curcumin concentration: number of osteoclasts decreased with increasing concentration of curcumin
RAW 264.7 cells; curcumin 10 μM added at the same time as RANKL 5 nM, 5 days
  RANKL-induced osteoclastogenesis, curcumin added together with RANKL: suppressed osteoclastogenesis maximally
RAW 264.7 cells; [3]
  RANKL-induced osteoclastogenesis, curcumin added 24 hours after RANKL: inhibited osteoclastogenesis
  RANKL-induced osteoclastogenesis, curcumin added 2 days after RANKL: inhibitory effect decreased significantly

## C/C=C1\C(=O)C[C@H]2[C@@H]3CCC4=CC(=O)CC[C@]4(C)[C@H]3CC[C@]12C [guggulsterone]
NF-κB; guggulsterone 4 h, then RANKL 10 nM 25 min, FIG. 6A
  concentration of guggulsterone at which maximal inhibition of RANKL-induced NF-κB activation was observed: 50 µM
NF-κB; guggulsterone in the absence of RANKL, FIG. 6A
  NF-κB activation, guggulsterone alone: no NF-κB activation
NF-κB; variable concentrations of guggulsterone 4 h, then RANKL 10 nM 25 min, FIG. 6A
  dose dependence of suppression of RANKL-induced NF-κB activation (EMSA): suppression of this activation increased as the concentration of guggulsterone increased
IκB kinase (IKK); guggulsterone 50 μM 4 h pretreatment, RANKL 10 nM different times, FIG. 6B
  RANKL-induced IKK activity (immune complex kinase assay): absence of IKK activity upon RANKL treatment
RAW 264.7 cells; RANKL 5 nM, guggulsterone 5 μM added on different days, FIG. 8
  RANKL-induced osteoclastogenesis, time of addition of guggulsterone: suppressed RANKL-induced osteoclastogenesis only when added together with RANKL
RAW 264.7 cells; guggulsterone 5 μM and RANKL 5 nM for different days, FIG. 7A
  RANKL-induced osteoclastogenesis (TRAP assay): suppressed RANKL-induced osteoclastogenesis
RAW 264.7 cells; guggulsterone, RANKL 5 nM, FIG. 7B
  number of RANKL-induced TRAP positive cells: decreased with increasing concentration of guggulsterone
[1]; varying concentrations of guggulsterone, FIG. 16B
  number of TRAP-positive cells, MDA-MB-468 co-incubation: decreased as the concentration of guggulsterone increased
[1]; varying concentrations of guggulsterone, FIGS. 16A and 16B
  MDA-MB-468 cells induced osteoclastogenesis: suppressed
[2]; varying concentrations of guggulsterone, FIG. 16D
  number of TRAP-positive cells, MCF-7 co-incubation: decreased as the concentration of guggulsterone increased
[2]; varying concentrations of guggulsterone, FIGS. 16C and 16D
  MCF-7 cells induced osteoclastogenesis: suppressed

— patent US7462646B2, “Osteoclastogenesis inhibitors and uses thereof” (Research Development Foundation, priority 2003, dated 2008)
